Where two headings read alike, the source gives them in different places.

In one series the test system is Escherichia coli MV1184. Briefly: MIC/MBC determination, sterilizing effect (microplate, BHI liquid medium). The settings on record: E. coli MV1184; substance 12.5 to 20 ppm, sodium chlorite about 0.14 mM to 0.22 mM. The format is cell-based.
Series [1] can be described thus: Lewis acidity measuring method (1): rate of oxidation of CoTPP by O2 in the presence of the Lewis acid. The format is physicochemical. The settings on record: for Lewis acidity (ΔE value): calculated from rate of oxidization of CoTPP with O2.

`N[C@@H](CO)C(=O)O` [L-serine]: the “sterilizing action (sterilizing effect) of drug made from the substance and sodium chlorite” value (“sterilizing action (sterilizing effect)” below) in the series on Escherichia coli MV1184 is given as “has a sterilizing action (sterilizing effect)”.

Regarding `C[N+](C)(C)CCOC(N)=O` [Carbamylcholine], the “Lewis acidity (ΔE value)” value in series [1] is 0.52 eV.

In the case of `CN.Cl` [methylammonium chloride], the “Lewis acidity (ΔE value)” value in series [1] was 0.70 eV. For the same compound, in the series on Escherichia coli MV1184, the “sterilizing action (sterilizing effect)” value was “has a sterilizing action (sterilizing effect)”.

Regarding `CC[N+](CC)(CC)Cc1ccccc1.[Cl-]` [Benzyltriethyl ammonium chloride], the “Lewis acidity (ΔE value)” value in series [1] is recorded as 0.54 eV.

`Cc1cc2nc3cc(C)c(N)cc3[n+](-c3ccccc3)c2cc1N.[Cl-]` [Safranine]: in series [1], the “Lewis acidity (ΔE value)” value is recorded as 0.67 eV.

As to `CC(=O)OCC[N+](C)(C)C` [Acetylcholine], the “Lewis acidity (ΔE value)” value in series [1] is recorded as 0.51 eV.

On to `CCCCCCCCCCCCCCCCCC[N+](C)(C)Cc1ccccc1.[Cl-]`, for which the “kcat, reaction rate constant of reaction between CoTPP and oxygen in the presence of a Lewis acid” value in series [1] (acetonitrile, saturated O2, room temperature) is given as 0.18 M^−2 s^−1. For the same compound, in series [1], the “Lewis acidity (ΔE value)” value is on record as 0.52 eV. The “sterilizing action (sterilizing effect)” value in the series on Escherichia coli MV1184 is “has a sterilizing action (sterilizing effect)”.

Consider `C[N+](C)(C)C.[Cl-]` [Tetramethylammonium chloride], for which the “Lewis acidity (ΔE value)” value in series [1] is given as 0.50 eV.

For the compound `NCC(=O)O` [glycine], the “sterilizing action (sterilizing effect)” value in the series with Escherichia coli MV1184 is on record as “has a sterilizing action (sterilizing effect)”.

For `C[n+]1ccccc1C=NO.[I-]` [pralidoxime methyl iodide], the “Lewis acidity (ΔE value)” value in series [1] is recorded as 0.60 eV.

For the compound `CCCC[N+](CCCC)(CCCC)CCCC.[Cl-]` [Tetrabutylammonium chloride], the “Lewis acidity (ΔE value)” value in series [1] is recorded as 0.63 eV. The “sterilizing action (sterilizing effect)” value in the series with Escherichia coli MV1184 is recorded as “has a sterilizing action (sterilizing effect)”.

Turning to `N[C@@H](CC(=O)O)C(=O)O` [L-aspartate], in the series with Escherichia coli MV1184, the “sterilizing action (sterilizing effect)” value was “has a sterilizing action (sterilizing effect)”.

Turning to `O=C(O)[C@@H]1CCCN1` [proline], the “sterilizing action (sterilizing effect)” value with Escherichia coli MV1184 is listed as “has a sterilizing action (sterilizing effect)”.

As for benzethonium chloride, in the series on Escherichia coli MV1184, the “sterilizing action (sterilizing effect)” value was “has a sterilizing action (sterilizing effect)”.

Regarding `CCCC[N+](CCCC)(CCCC)CCCC.F[P-](F)(F)(F)(F)F` [tetrabutylammonium hexafluorophosphate], in series [1], the “kcat, reaction rate constant of reaction between CoTPP and oxygen in the presence of a Lewis acid” value is reported as >0.1 M^−2 s^−1.

For the compound oxidized glutathione, the “sterilizing action (sterilizing effect)” value in the series on Escherichia coli MV1184 is listed as “has a sterilizing action (sterilizing effect)”.

Turning to `C[N+](C)(C)CC(=O)O` [Betaine], in series [1], the “Lewis acidity (ΔE value)” value is 0.67 eV.

`Cl.N` [Ammonium chloride]: the “Lewis acidity (ΔE value)” value in series [1] is on record as 0.66 eV. In the series with Escherichia coli MV1184, the “sterilizing action (sterilizing effect)” value is recorded as “has a sterilizing action (sterilizing effect)”.

For the compound `C[n+]1cccc(C(=O)[O-])c1` [Trigonelline], the “Lewis acidity (ΔE value)” value in series [1] is on record as 0.69 eV.

Values taken from US20200171118A1.
